In EP4745117A1, “NOVEL INDENONE DERIVATIVE AND USE THEREOF” (Amyloid Solution Inc., priority 2023, dated 2025):

What was measured:
Aβ1-42 = biological target: T1, Aβ1-42 (Homo sapiens, UniProt P05067); experiment: Amyloid-beta disaggregation test by Thioflavin-T analysis; format: biochemical; settings: for EC50: Aβ1-42 50 µM aggregated 24 hours, then compound 0 - 500 µM for 48 hours at 37 °C, concentration disaggregating 50 % of aggregates vs control, read-out: EC50 (µM) Aβ; for disaggregation effect for amyloid-beta protein aggregates: statement in words summarising the Thioflavin-T results
T1 construct: dissolving Aβ1-42 or Tau-RD3 (Tau repeat domain 3) monomers in DMSO
Procedure: (§1) Each compound was dissolved in DMSO to a concentration of 10 mM. Then, the compounds were diluted with 6 % DMSO (in DW) for use.
(§2) Amyloid-beta and tau solutions were prepared by dissolving Aβ1-42 or Tau-RD3 (Tau repeat domain 3) monomers in DMSO to a concentration of 10 mM. Then, the solutions were diluted to 100 µM with DW and stored on ice.
(§3) Meanwhile, Thioflavin-T was dissolved in 50 mM glycine buffer (pH 8.5) to a concentration of 5 mM. Then, the solution was diluted to 5 µM with 50 mM glycine buffer (pH 8.5) and stored in the dark, protected from light.
(§4) The amyloid-beta and tau solutions prepared in Example 1.1 were each placed in 1.5 mL microcentrifuge tubes to a concentration of 50 µM or 35 µM, respectively, and then reacted at 37 °C for 24 hours.
(§5) To each 1.5 mL microcentrifuge tube in which the amyloid-beta and tau aggregation was complete, the compounds were added at concentrations ranging from 500 µM down to 0 µM by serial dilution, and then further reacted at 37 °C for 48 hours.
(§6) 25 µL of each completed reaction solution was added to each well of a 96-well fluorescence analysis plate, and 75 µL of the Thioflavin-T solution was added to each well. After reacting for 5 minutes at room temperature in the dark, the fluorescence value was measured at 450 nm (excitation) and 485 nm (emission) using a multi-mode microplate reader.
(§7) The fluorescence value of the group (control group) treated with only amyloid-beta or tau and aggregated for 72 hours was designated as 100 %. The fluorescence values measured after treating the amyloid-beta and tau aggregates (formed by reacting for 24 hours) with each compound by concentration and reacting for an additional 48 hours were converted to relative values.

[1] = biological target: Tau-RD3 (Tau repeat domain 3) (Homo sapiens, UniProt P10636); experiment: Tau disaggregation test by Thioflavin-T analysis; format: biochemical; settings: for EC50: Tau-RD3 35 µM aggregated 24 hours, then compound 0 - 500 µM for 48 hours at 37 °C, concentration disaggregating 50 % of aggregates vs control, read-out: EC50 (µM) Tau; for disaggregation effect for tau protein aggregates: statement in words summarising the Thioflavin-T results
Procedure: as §1, §2, §3, §4, §5, §6, §7

T1 sequence (P05067 672-713 limits assumed): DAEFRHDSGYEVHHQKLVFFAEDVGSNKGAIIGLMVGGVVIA
Sequence of Tau-RD3 (Tau repeat domain 3) (P10636 623-653 limits assumed): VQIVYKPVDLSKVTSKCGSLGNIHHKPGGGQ

Structure (SMILES)	EC50 (Aβ1-42) [µM]	EC50 [1] [µM]	disaggregation effect for amyloid-beta protein aggregates (Aβ1-42)	disaggregation effect for tau protein aggregates [1]
COc1cccc(OC)c1C1=C(c2cccnc2)C(=O)c2cc(OCCCc3ccccc3)ccc21 [Compound 45, 3-(2,6-dimethoxyphenyl)-6-(3-phenylpropoxy)-2-(pyridin-3-yl)-1H-inden-1-one]	< 20	100 to 250	–	–
Cc1scnc1C1=C(c2cccnc2)C(=O)c2cc(O)ccc21 [Compound 23-10, 6-hydroxy-3-(5-methylthiazol-4-yl)-2-(pyridin-3-yl)-1H-inden-1-one]	> 250	20 to 100	–	–
Cc1ncsc1C1=C(c2cccnc2)C(=O)c2cc(NCCCc3ccccc3)ccc21 [Compound 20, 3-(4-methylthiazol-5-yl)-6-((3-phenylpropyl)amino)-2-(pyridin-3-yl)-1H-inden-1-one]	< 20	< 20	remarkably excellent disaggregation effect	remarkably excellent disaggregation effect
Cc1ncsc1C1=C(c2cccnc2)C(=O)c2cc(O)ccc21 [Compound 35, 6-hydroxy-3-(4-methylthiazol-5-yl)-2-(pyridin-3-yl)-1H-inden-1-one]	20 to 100	20 to 100	–	–
Cc1ncsc1C1=C(c2ccc(N3CCN(C)CC3)cc2)C(=O)c2cc(OCCCc3ccccc3)ccc21 [Compound 76, 2-(4-(4-methylpiperazin-1-yl)phenyl)-3-(4-methylthiazol-5-yl)-6-(3-phenylpropoxy)-1H-inden-1-one]	< 20	< 20	–	–
Cc1ccccc1C1=C(c2ccccc2)c2ccccc2C1=O [Compound 6, 3-phenyl-2-(o-tolyl)-1H-inden-1-one]	20 to 100	> 250	–	–
O=C1C(c2ccccc2)=C(Br)c2ccccc21 [Compound 5-4, 3-bromo-2-phenyl-1H-inden-1-one]	< 20	< 20	remarkably excellent disaggregation effect	remarkably excellent disaggregation effect
CN1CCN(c2ccc(C3=C(c4ccccc4)C(=O)c4ccccc43)cc2)CC1 [Compound 94, 3-(4-(4-methylpiperazin-1-yl)phenyl)-2-phenyl-1H-inden-1-one]	< 20	20 to 100	–	–
Cc1ccccc1C1=C(c2ccccc2C(=O)O)C(=O)c2ccccc21 [Compound 99-8, 2-(1-oxo-3-(o-tolyl)-1H-inden-2-yl)benzoic acid]	> 250	20 to 100	–	–
CN(C)c1ccc2c(c1)C(=O)C(c1ccccc1)=C2c1ccccc1 [Compound 69, 6-(dimethylamino)-2,3-diphenyl-1H-inden-1-one]	< 20	> 250	–	–
Cc1ncsc1C1=C(c2cn[nH]c2)C(=O)c2cc(OCCCc3ccccc3)ccc21 [Compound 27, 3-(4-methylthiazol-5-yl)-6-(3-phenylpropoxy)-2-(1H-pyrazol-4-yl)-1H-inden-1-one]	< 20	< 20	remarkably excellent disaggregation effect	remarkably excellent disaggregation effect
Cc1ncsc1C1=C(c2scnc2C)c2ccc(N3CCN(C)CC3)cc2C1=O [Compound 79, 6-(4-methylpiperazin-1-yl)-2,3-bis(4-methylthiazol-5-yl)-1H-inden-1-one]	20 to 100	20 to 100	–	–
Cc1ncsc1C1=C(c2cnccn2)C(=O)c2cc(O)ccc21 [Compound 41-4, 6-hydroxy-3-(4-methylthiazol-5-yl)-2-(pyrazin-2-yl)-1H-inden-1-one]	> 250	> 250	–	–
Cn1cc(C2=C(c3cccnc3)C(=O)c3cc(OCCCc4ccccc4)ccc32)cn1 [Compound 42, 3-(1-methyl-1H-pyrazol-4-yl)-6-(3-phenylpropoxy)-2-(pyridin-3-yl)-1H-inden-1-one]	> 250	> 250	–	–
Cc1ncsc1C1=C(c2cccnc2)C(=O)c2cc(N3CCN(C)CC3)ccc21 [Compound 64, 6-(4-methylpiperazin-1-yl)-3-(4-methylthiazol-5-yl)-2-(pyridin-3-yl)-1H-inden-1-one]	20 to 100	100 to 250	–	–
Cc1ncsc1C1=C(c2cccnc2)C(=O)c2cc(N(C)CCCc3ccccc3)ccc21 [Compound 38, 6-(methyl(3-phenylpropyl)amino)-3-(4-methylthiazol-5-yl)-2-(pyridin-3-yl)-1H-inden-1-one]	< 20	> 250	–	–
O=C1C(c2ccccc2)=C(c2ccccc2)c2ccc(Cl)cc21 [Compound 12-3, 6-chloro-2,3-diphenyl-1H-inden-1-one]	100 to 250	> 250	–	–

Continued, in another order:

EC50 (Aβ1-42) [µM]	EC50 [1] [µM]	Structure (SMILES)	disaggregation effect for amyloid-beta protein aggregates (Aβ1-42)	disaggregation effect for tau protein aggregates [1]
20 to 100	100 to 250	CN1CCN(c2ccc3c(c2)C(=O)C(c2cccc(N4CCOCC4)c2)=C3c2cccc(N3CCOCC3)c2)CC1 [Compound 80, 6-(4-methylpiperazin-1-yl)-2,3-bis(3-morpholinophenyl)-1H-inden-1-one]	–	–
> 250	> 250	CC(C)(C)c1cc(C2=C(c3ccccc3)C(=O)c3ccccc32)cc(C(C)(C)C)c1 [Compound 96, 3-(3,5-di-tert-butylphenyl)-2-phenyl-1H-inden-1-one]	–	–
< 20	> 250	O=C1C(c2ccc(N3CCOCC3)cc2)=C(c2ccccc2)c2ccccc21 [Compound 17, 2-(4-morpholinophenyl)-3-phenyl-1H-inden-1-one]	–	–
< 20	< 20	Cc1scnc1C1=C(c2cccnc2)C(=O)c2cc(OCCCc3ccncc3)ccc21 [Compound 23, 3-(5-methylthiazol-4-yl)-2-(pyridin-3-yl)-6-(3-(pyridin-4-yl)propoxy)-1H-inden-1-one]	remarkably excellent disaggregation effect	remarkably excellent disaggregation effect
< 20	< 20	Cc1ncsc1C1=C(c2cccnc2)C(=O)c2cc(Oc3ccccc3)ccc21 [Compound 66, 3-(4-methylthiazol-5-yl)-6-phenoxy-2-(pyridin-3-yl)-1H-inden-1-one]	remarkably excellent disaggregation effect	remarkably excellent disaggregation effect
< 20	> 250	Cc1ncsc1C1=C(c2ccccn2)C(=O)c2cc(OCCCc3ccccc3)ccc21 [Compound 40, 3-(4-methylthiazol-5-yl)-6-(3-phenylpropoxy)-2-(pyridin-2-yl)-1H-inden-1-one]	–	–
< 20	> 250	O=C1C(c2cccc(N3CCOCC3)c2)=C(c2ccccc2)c2ccccc21 [Compound 18, 2-(3-morpholinophenyl)-3-phenyl-1H-inden-1-one]	–	–
> 250	> 250	Cc1ncsc1C1=C(c2ccncc2)C(=O)c2cc(O)ccc21 [Compound 39-3, 6-hydroxy-3-(4-methylthiazol-5-yl)-2-(pyridin-4-yl)-1H-inden-1-one]	–	–
> 250	100 to 250	Cc1ncsc1C1=C(c2cccnc2)C(=O)c2ccccc21 [Compound 19, 3-(4-methylthiazol-5-yl)-2-(pyridin-3-yl)-1H-inden-1-one]	–	–
< 20	> 250	COc1cc(OC)c2c(c1)C(=O)C(c1ccccc1)=C2c1ccccc1 [Compound 97, 4,6-dimethoxy-2,3-diphenyl-1H-inden-1-one]	–	–
20 to 100	20 to 100	Cc1ncsc1C1=C(c2cccnc2)C(=O)c2cc(NC3CCOCC3)ccc21 [Compound 56, 3-(4-methylthiazol-5-yl)-2-(pyridin-3-yl)-6-((tetrahydro-2H-pyran-4-yl)amino)-1H-inden-1-one]	–	–
< 20	> 250	COc1ccccc1C1=C(c2cccnc2)C(=O)c2cc(OCCCc3ccccc3)ccc21 [Compound 44, 3-(2-methoxyphenyl)-6-(3-phenylpropoxy)-2-(pyridin-3-yl)-1H-inden-1-one]	–	–
< 20	> 250	O=C1C(c2ccccc2)=C(c2ccc(N3CCOCC3)cc2)c2ccccc21 [Compound 14, 3-(4-morpholinophenyl)-2-phenyl-1H-inden-1-one]	–	–
< 20	> 250	O=C1C(c2cccc(N3CCOCC3)c2)=C(c2ccccc2)c2ccc(Cl)cc21 [Compound 73-7, 6-chloro-2-(3-morpholinophenyl)-3-phenyl-1H-inden-1-one]	–	–
> 250	> 250	COCCNc1ccc2c(c1)C(=O)C(c1cccnc1)=C2c1scnc1C [Compound 54, 6-((2-methoxyethyl)amino)-3-(4-methylthiazol-5-yl)-2-(pyridin-3-yl)-1H-inden-1-one]	–	–
